Where two headings read alike, the source gives them in different places.
Assays:
[1] = tested on: ERK1/2 phosphorylation of p90RSK in A375 cells; assay: Detection of total and phosphor-RSK by MSD ELISA (A375); type: cell-based; conditions: Homo sapiens, A-375, read-out: ERK1/ERK2 PRSK A375 EC50
In short: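 Electrochemiluminescent MSD ELISA: common RSK capture antibody, with pRSK Ser380 or total RSK detection antibodies plus SulfoTag secondaries. Samples were lysates of A375 cells exposed to compound for 2 h at 37° C after overnight culture in 0.1% FBS DMEM.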

[2] = biological target: T1, Erk1 (Homo sapiens, UniProt P27361); assay: Protein Mass Modification Assay (intact protein MALDI, 60 min, 10-fold excess of compound); type: binding
T1 construct: purchased Millipore 14-439
In short: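 Percent covalent modification comes from the intact-protein MALDI centroid mass shift, treated versus control, divided by compound MW. Before analysis, human Erk1 was exposed to compound at 10-fold excess over protein for 60 min at room temperature.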

[3] = biological target: T2, MEK1 activated ERK1 (Homo sapiens, UniProt P27361); assay: Omnia continuous-read kinase assay for potency against MEK1 activated ERK1; type: biochemical
T2 construct: purchased Millipore (Billerica, Mass.) 14-439-K
In short: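 Apparent IC50 came from initial reaction slopes (RFU vs time) plotted against log inhibitor with a variable-slope fit. Reactions were started with ERK1 (4 nM final) added to 50 μM ATP, roughly at its appKM, and 10 μM Sox-conjugated ST17 peptide in 20 mM Tris pH 7.5, 5 mM MgCl2. Fluorescence was monitored every 71 seconds.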

[4] = MEK1 activated ERK1, ATP at KM, read-out: ERK1 Omnia WT ATP KM IC50

T1 sequence (P27361 whole entry): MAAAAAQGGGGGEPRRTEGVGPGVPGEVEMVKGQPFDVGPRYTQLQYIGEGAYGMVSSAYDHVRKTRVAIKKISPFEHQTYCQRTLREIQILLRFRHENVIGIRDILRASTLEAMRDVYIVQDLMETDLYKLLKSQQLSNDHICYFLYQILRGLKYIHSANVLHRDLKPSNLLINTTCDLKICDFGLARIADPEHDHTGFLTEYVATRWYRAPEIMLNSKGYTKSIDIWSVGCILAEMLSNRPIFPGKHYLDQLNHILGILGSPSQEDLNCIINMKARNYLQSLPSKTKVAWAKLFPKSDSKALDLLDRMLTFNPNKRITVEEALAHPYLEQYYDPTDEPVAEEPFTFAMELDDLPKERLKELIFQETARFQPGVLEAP
T2 sequence (P27361 whole entry): as above

Structure (SMILES)	EC50 [1]	ERK1 Mass Mod (%) [2]	IC50 ([3]; ATP at KM, WT)	IC50 [3, 4]
C=CC(=O)Nc1cc(C)ccc1Nc1nc(NC2CCC(=O)NC2)ncc1C(F)(F)F (racemic) [Compound I-368, Rac-N-(5-methyl-2-((2-((6-oxopiperidin-3-yl)amino)-5-(trifluoromethyl)pyrimidin-4-yl)amino)phenyl)acrylamide]	> 1000 nM	E (a mass modification of ≧70%)	101 to 500 nM	–
C=CC(=O)Nc1ccccc1Nc1nc(Nc2cc(OC)ncc2C)ncc1C(F)(F)F [Compound I-85, N-(2-((2-((2-Methoxy-5-methylpyridin-4-yl)amino)-5-(trifluoromethyl)pyrimidin-4-yl)amino)phenyl)acrylamide]	< 100 nM	E (a mass modification of ≧70%)	–	< 100 nM
C=CC(=O)Nc1ccccc1Nc1nc(Nc2cc(OC)nc(N3CCN(C(C)=O)CC3)c2)ncc1C(F)(F)F [Compound I-92]	< 100 nM	E (a mass modification of ≧70%)	–	< 100 nM
C=CC(=O)Nc1cc(C)ccc1Nc1nc(Nc2cc(OC)nc(N3CCN(C(C)=O)CC3)c2)ncc1C(F)(F)F [Compound I-93, N-(2-((2-((2-(4-Acetylpiperazin-1-yl)-6-methoxypyridin-4-yl)amino)-5-(trifluoromethyl)pyrimidin-4-yl)amino)-5-methylphenyl)acrylamide]	< 100 nM	E (key: E: a mass modification of ≧70%; F: a mass modification of 31-69%; G: a mass modification ≦30%)	–	101 to 500 nM
C=CC(=O)Nc1cc(C)ccc1Nc1nc(Nc2cc(OC)nc(OC)c2)ncc1C(F)(F)F [Compound I-96]	101 to 500 nM	E (key: E: a mass modification of ≧70%; F: a mass modification of 31-69%; G: a mass modification ≦30%)	–	101 to 500 nM
C=CC(=O)Nc1cc(C)ccc1Nc1nc(Nc2cc(NCCOC)nc(OC)c2)ncc1C(F)(F)F [Compound I-294, N-(2-((2-((2-methoxy-6-((2-methoxyethyl)amino)pyridin-4-yl)amino)-5-(trifluoromethyl)pyrimidin-4-yl)amino)-5-methylphenyl)acrylamide]	< 100 nM	E (a mass modification of ≧70%)	–	101 to 500 nM
C=CC(=O)Nc1cc(C)ccc1Nc1nc(Nc2cc(N[C@H]3CC[C@](C)(O)CC3)nc(OC)c2)ncc1C(F)(F)F [Compound I-327, N-(2-((2-((2-((trans-4-hydroxy-4-methylcyclohexyl)amino)-6-methoxypyridin-4-yl)amino)-5-(trifluoromethyl)pyrimidin-4-yl)amino)-5-methylphenyl)acrylamide]	< 100 nM	E (a mass modification of ≧70%)	–	101 to 500 nM
C=CC(=O)Nc1cc(C)ccc1Nc1nc(Nc2cc(P(C)(C)=O)ncc2C)ncc1C(F)(F)F [Compound I-343, N-(2-((2-((2-(dimethylphosphoryl)-5-methylpyridin-4-yl)amino)-5-(trifluoromethyl)pyrimidin-4-yl)amino)-5-methylphenyl)acrylamide]	101 to 500 nM	F (a mass modification of 31-69%)	101 to 500 nM	–
C#CC(=O)Nc1cc(C)ccc1Nc1nc(Nc2cc(OC)ncc2C)ncc1C(F)(F)F [Compound I-345, N-(2-((2-((2-methoxy-5-methylpyridin-4-yl)amino)-5-(trifluoromethyl)pyrimidin-4-yl)amino)-5-methylphenyl)propiolamide]	> 1000 nM	E (a mass modification of ≧70%)	101 to 500 nM	–
C=CC(=O)Nc1cc(C)ccc1Nc1nc(Nc2nc(OC)ncc2C#N)ncc1C(F)(F)F [Compound I-346, N-(2-((2-((5-cyano-2-methoxypyrimidin-4-yl)amino)-5-(trifluoromethyl)pyrimidin-4-yl)amino)-5-methylphenyl)acrylamide]	101 to 500 nM	E (a mass modification of ≧70%)	501 to 999 nM	–
C=CC(=O)Nc1cc(C)ccc1Nc1nc(Nc2nc(OC)ncc2C)ncc1C(F)(F)F [Compound I-347, N-(2-((2-((2-methoxy-5-methylpyrimidin-4-yl)amino)-5-(trifluoromethyl)pyrimidin-4-yl)amino)-5-methylphenyl)acrylamide]	101 to 500 nM	E (a mass modification of ≧70%)	< 100 nM	–
C=CC(=O)Nc1cc(C)ccc1Nc1nc(Nc2nc(OC)ncc2OC)ncc1C(F)(F)F [Compound I-349, N-(2-((2-((2,5-dimethoxypyrimidin-4-yl)amino)-5-(trifluoromethyl)pyrimidin-4-yl)amino)-5-methylphenyl)acrylamide]	101 to 500 nM	E (a mass modification of ≧70%)	101 to 500 nM	–
C=CC(=O)Nc1cc(C)ccc1Nc1nc(Nc2cnc(OC)cc2C)ncc1C(F)(F)F [Compound I-350, N-(2-((2-((6-methoxy-4-methylpyridin-3-yl)amino)-5-(trifluoromethyl)pyrimidin-4-yl)amino)-5-methylphenyl)acrylamide]	> 1000 nM	F (a mass modification of 31-69%)	501 to 999 nM	–
C=CC(=O)Nc1cc(C)ccc1Nc1nc(Nc2cc(OC)ncc2Cl)ncc1C(F)(F)F [Compound I-351, N-(2-((2-((5-chloro-2-methoxypyridin-4-yl)amino)-5-(trifluoromethyl)pyrimidin-4-yl)amino)-5-methylphenyl)acrylamide]	101 to 500 nM	F (a mass modification of 31-69%)	101 to 500 nM	–
C=CC(=O)Nc1cc(C)ccc1Nc1nc(Nc2ncc(C(F)(F)F)c(OC)n2)ncc1C(F)(F)F [Compound I-354, N-(2-((2-((4-methoxy-5-(trifluoromethyl)pyrimidin-2-yl)amino)-5-(trifluoromethyl)pyrimidin-4-yl)amino)-5-methylphenyl)acrylamide]	101 to 500 nM	E (a mass modification of ≧70%)	101 to 500 nM	–
C=CC(=O)Nc1cc(C)ccc1Nc1nc(Nc2nc(OC)ncc2C(F)(F)F)ncc1C(F)(F)F [Compound I-355, N-(2-((2-((2-methoxy-5-(trifluoromethyl)pyrimidin-4-yl)amino)-5-(trifluoromethyl)pyrimidin-4-yl)amino)-5-methylphenyl)acrylamide]	101 to 500 nM	E (a mass modification of ≧70%)	101 to 500 nM	–
C=CC(=O)Nc1cc(C)ccc1Nc1nc(Nc2ncc(F)c(OC)n2)ncc1C(F)(F)F [Compound I-356, N-(2-((2-((5-fluoro-4-methoxypyrimidin-2-yl)amino)-5-(trifluoromethyl)pyrimidin-4-yl)amino)-5-methylphenyl)acrylamide]	101 to 500 nM	E (a mass modification of ≧70%)	501 to 999 nM	–
C=CC(=O)Nc1cc(C)ccc1Nc1nc(Nc2nc(OC)ncc2F)ncc1C(F)(F)F [Compound I-357, N-(2-((2-((5-fluoro-2-methoxypyrimidin-4-yl)amino)-5-(trifluoromethyl)pyrimidin-4-yl)amino)-5-methylphenyl)acrylamide]	101 to 500 nM	E (a mass modification of ≧70%)	101 to 500 nM	–
C=CC(=O)Nc1cc(C)ccc1Nc1nc(Nc2cc(OCC)ncc2C)ncc1C(F)(F)F [Compound I-358, N-(2-((2-((2-ethoxy-5-methylpyridin-4-yl)amino)-5-(trifluoromethyl)pyrimidin-4-yl)amino)-5-methylphenyl)acrylamide]	101 to 500 nM	E (a mass modification of ≧70%)	101 to 500 nM	–
C=CC(=O)Nc1cc(C)ccc1Nc1nc(Nc2cc(OCCOC)ncc2C)ncc1C(F)(F)F [Compound I-359, N-(2-((2-((2-(2-methoxyethoxy)-5-methylpyridin-4-yl)amino)-5-(trifluoromethyl)pyrimidin-4-yl)amino)-5-methylphenyl)acrylamide]	101 to 500 nM	E (a mass modification of ≧70%)	101 to 500 nM	–
C=CC(=O)Nc1cc(C)ccc1Nc1nc(Nc2nc(OC)ccc2Cl)ncc1C(F)(F)F [Compound I-360, N-(2-((2-((3-chloro-6-methoxypyridin-2-yl)amino)-5-(trifluoromethyl)pyrimidin-4-yl)amino)-5-methylphenyl)acrylamide]	101 to 500 nM	E (a mass modification of ≧70%)	–	–
C=CC(=O)Nc1cc(C)ccc1Nc1nc(Nc2cc(OC)cnc2Cl)ncc1C(F)(F)F [Compound I-361, N-(2-((2-((2-chloro-5-methoxypyridin-3-yl)amino)-5-(trifluoromethyl)pyrimidin-4-yl)amino)-5-methylphenyl)acrylamide]	101 to 500 nM	E (a mass modification of ≧70%)	–	–
C=CC(=O)Nc1cc(C)ccc1Nc1nc(Nc2nc(O)ncc2C)ncc1C(F)(F)F [Compound I-364, N-(2-((2-((2-hydroxy-5-methylpyrimidin-4-yl)amino)-5-(trifluoromethyl)pyrimidin-4-yl)amino)-5-methylphenyl)acrylamide]	< 100 nM	E (a mass modification of ≧70%)	–	–
C=CC(=O)Nc1cc(C)c(F)cc1Nc1nc(Nc2cc(OC)ncc2C)ncc1C(F)(F)F [Compound I-366, N-(4-fluoro-2-((2-((2-methoxy-5-methylpyridin-4-yl)amino)-5-(trifluoromethyl)pyrimidin-4-yl)amino)-5-methylphenyl)acrylamide]	> 1000 nM	E (a mass modification of ≧70%)	> 1000 nM	–

Source: US9561228B2 (Celgene Avilomics Research, Inc., priority 2013, dated 2017)
